According to paper PMC7707621, “Oxidized Juncuenin B Analogues with Increased Antiproliferative Activity on Human Adherent Cell Lines: Semisynthesis and Biological Evaluation” (Journal of Natural Products, 2020):

How the values were obtained:
[1] = tested on: MCF-7 cells; experiment: MTT antiproliferative assay on MCF-7; type: cell-based, human; details: for inhibition at 10 µM / IC50 / inhibition at 30 µM: Homo sapiens; for inhibition at 10 µM: MCF7, 10 μM; for inhibition at 10 µM / inhibition at 30 µM: read-out: Growth inhibition (% ± SEM), MCF-7; for IC50: MCF7, MTT, 0.1–30 μM, 72 h, mean ± SEM, read-out: calculated IC50 values, MCF-7; for inhibition at 30 µM: MCF7, 30 μM
Method: (§1) The antiproliferative assays of the products were carried out by a standard MTT method on human breast (MCF-7, T47D), cervical (HeLa, SiHa, C33A), and ovarian (A2780) cancer cells, and NIH/3T3 mouse embryonic fibroblast cell lines. In the first step, the diastereomeric and racemic mixtures 1–11 and the starting compound, juncuenin B, were tested to obtain information about their antiproliferative activity.
(§2) The antiproliferative activity and tumor selectivity of the compounds were measured by standard MTT assays. Tumor cell lines MCF-7, T47D, HeLa, A2780, and noncancerous NIH/3T3 were provided by European Collection of Authenticated Cell Cultures (ECACC, Salisbury, UK); cell lines SiHa and C33A by LGC Standards GmbH (Wesel, Germany). All chemicals and materials used for the antiproliferative assays were purchased from Sigma Aldrich Ltd. (Budapest, Hungary).
(§3) Growth-inhibition properties of racemates and pure enantiomer compounds were determined by standard MTT assays on six human malignant gynecological cell lines (MCF-7, T47D, HeLa, SiHa, C33A, A2780). To investigate tumor selectivity, the MTT assay was repeated on mouse embryonic fibroblast cells (NIH/3T3) under the same conditions. All cell lines were maintained in minimal essential medium (MEM) supplemented with 10% fetal bovine serum, 1% nonessential amino acids, and 1% penicillin–streptomycin–amphotericin B mixture, and were stored in humidified air containing 5% CO2 at 37 °C. All cell types were seeded into 96–well plates at a density of 5000 with the exception of C33a, which was seeded at a density of 10 000 and treated by increasing concentrations (0.1–30 μM) of the compounds for 72 h under cell culturing conditions. After the incubation, 5 mg/mL MTT [3-(4,5-dimethylthiazol-2-yl)-2,5-diphenyltetrazolium bromide] solution was added to samples for 4 h and precipitated blue formazan crystals were dissolved in DMSO. Absorbance values of the samples were measured at 545 nm using a microplate reader (Stat Fax-2100, Awareness Technologies Inc., Palm City, FL, USA) and untreated cells were used as control. Normalized sigmoidal dose–response curves were fitted to the determined data and the IC50 values were calculated by GraphPad Prism 5.01 (GraphPad Software, San Diego, CA, USA). Cisplatin (Ebewe Pharma GmbH, Unterach, Austria) was used as a reference agent in the same concentration range.

[2] = tested on: T47D cells; experiment: MTT antiproliferative assay on T47D; type: cell-based, human; details: for inhibition at 10 µM / IC50 / inhibition at 30 µM: Homo sapiens, T47D; for inhibition at 10 µM / inhibition at 30 µM: read-out: Growth inhibition (% ± SEM), T47d; for IC50: MTT, 0.1–30 μM, 72 h, mean ± SEM, read-out: calculated IC50 values, T47D
Method: as §1, §2, §3

[3] = tested on: HeLa cells; experiment: MTT antiproliferative assay on HeLa; type: cell-based, human; details: for inhibition at 10 µM / IC50 / inhibition at 30 µM: Homo sapiens, HeLa; for inhibition at 10 µM / inhibition at 30 µM: read-out: Growth inhibition (% ± SEM), HeLa; for IC50: MTT, 0.1–30 μM, 72 h, mean ± SEM, read-out: calculated IC50 values, HeLa
Method: as §1, §2, §3

[4] = tested on: SiHa cells; experiment: MTT antiproliferative assay on SiHa; type: cell-based, human; details: for inhibition at 10 µM / IC50 / inhibition at 30 µM: Homo sapiens, SiHa; for inhibition at 10 µM / inhibition at 30 µM: read-out: Growth inhibition (% ± SEM), SiHa; for IC50: MTT, 0.1–30 μM, 72 h, mean ± SEM, read-out: calculated IC50 values, SiHa
Method: as §1, §2, §3

[5] = tested on: C33A cells; experiment: MTT antiproliferative assay on C33A; type: cell-based, human; details: for IC50 / inhibition at 10 µM / inhibition at 30 µM: Homo sapiens, C-33-A; for IC50: MTT, 0.1–30 μM, 72 h, mean ± SEM, read-out: calculated IC50 values, C33A; for inhibition at 10 µM / inhibition at 30 µM: read-out: Growth inhibition (% ± SEM), C33a
Method: as §1, §2, §3

[6] = tested on: A2780 cells; experiment: MTT antiproliferative assay on A2780; type: cell-based, human; details: for IC50 / inhibition at 10 µM / inhibition at 30 µM: Homo sapiens; for IC50: A2780, MTT, 0.1–30 μM, 72 h, mean ± SEM, read-out: calculated IC50 values, A2780; for inhibition at 10 µM: A2780, 10 μM; for inhibition at 10 µM / inhibition at 30 µM: read-out: Growth inhibition (% ± SEM), A2780; for inhibition at 30 µM: A2780, 30 μM
Method: as §1, §2, §3

[7] = tested on: NIH/3T3 mouse embryonic fibroblast cells; experiment: MTT assay for tumor selectivity on NIH/3T3; type: cell-based; details: for IC50 / inhibition at 10 µM / inhibition at 30 µM: Mus musculus, NIH3T3; for IC50: 0.1–30 μM, 72 h, mean ± SEM, read-out: calculated IC50 values, NIH/3T3; for inhibition at 10 µM / inhibition at 30 µM: read-out: Growth inhibition (% ± SEM), NIH
Method: as §1, §2, §3

| IC50 [1] [µM] | IC50 [2] [µM] | IC50 [3] [µM] | IC50 [6] [µM] | SMILES | inhibition at 10 µM [1] [%] | inhibition at 10 µM ([2]; 10 μM) [%] | inhibition at 10 µM ([3]; 10 μM) [%] | inhibition at 10 µM ([4]; 10 μM) [%] | IC50 [4] [µM] | IC50 ([7]; MTT) [µM] | inhibition at 30 µM [1] [%] | inhibition at 30 µM ([2]; 30 μM) [%] | inhibition at 30 µM ([3]; 30 μM) [%] | inhibition at 30 µM ([4]; 30 μM) [%] | inhibition at 10 µM ([5]; 10 μM) [%] | inhibition at 30 µM ([5]; 30 μM) [%] | inhibition at 10 µM [6] [%] | inhibition at 30 µM [6] [%] | inhibition at 10 µM [7] [%] | inhibition at 30 µM [7] [%] | further results |
| --- | --- | --- | --- | --- | --- | --- | --- | --- | --- | --- | --- | --- | --- | --- | --- | --- | --- | --- | --- | --- | --- |
| > 30 | 22.9 ± 1.6 | 25.9 ± 0.3 | 11.2 ± 0.3 | C=CC1=C(C)C(=O)C=C2C3=C(CCC21OCC)C(C)(OCC)C(=O)C=C3 (single isomer, unassigned) [Compound 6a] | 19.6 ± 1.7 | < 10 | < 10 | < 10 | 29.7 ± 0.2 | 24.5 ± 1.9 |  |  |  |  |  |  |  |  |  |  | Growth inhibition (% ± SEM), MCF-7 ([1]; 30 μM): 45.64±0.26%; Growth inhibition (% ± SEM), T47d ([2]; 30 μM): 63.48±0.80%; Growth inhibition (% ± SEM), HeLa ([3]; 30 μM): 67.85±1.23%; Growth inhibition (% ± SEM), SiHa ([4]; 30 μM): 68.74±1.56%; Growth inhibition (% ± SEM), C33a ([5]; 10 μM): 21.08±1.92%; Growth inhibition (% ± SEM), C33a ([5]; 30 μM): 93.17±0.50%; IC50 [5]: 14.1 ± 0.2 µM; Growth inhibition (% ± SEM), A2780 ([6]; 10 μM): 43.71±2.91%; Growth inhibition (% ± SEM), A2780 ([6]; 30 μM): 93.85±0.75% |
|  |  |  |  | C=CC1=C(C)C(=O)C=C2C3=C(CCC21OCC)C(C)(OCC)C(=O)C=C3 (single isomer, unassigned) [Compound 6b] |  |  |  |  |  |  |  |  |  |  |  |  |  |  |  |  | Growth inhibition (% ± SEM), MCF-7 ([1]; 10 μM): 14.17±2.25%; Growth inhibition (% ± SEM), MCF-7 ([1]; 30 μM): 21.81±2.36%; Growth inhibition (% ± SEM), T47d ([2]; 10 μM): < 10%; Growth inhibition (% ± SEM), T47d ([2]; 30 μM): < 10%; Growth inhibition (% ± SEM), HeLa ([3]; 10 μM): < 10%; Growth inhibition (% ± SEM), HeLa ([3]; 30 μM): < 10%; Growth inhibition (% ± SEM), SiHa ([4]; 10 μM): < 10%; Growth inhibition (% ± SEM), SiHa ([4]; 30 μM): < 10%; Growth inhibition (% ± SEM), C33a ([5]; 10 μM): < 10%; Growth inhibition (% ± SEM), C33a ([5]; 30 μM): < 10%; Growth inhibition (% ± SEM), A2780 ([6]; 10 μM): < 10%; Growth inhibition (% ± SEM), A2780 ([6]; 30 μM): < 10% |
| 11.6 |  |  |  | C=CC1=C(C)C(=O)C=C2C3=C(CCC21OC)C(C)(OC)C(=O)C=C3 (centres unmarked) [1a–1d, 2,6-dioxo-1,8a-dimethoxy-1,7-dimethyl-8-vinyl-9,10-dihydrophenanthrenes] | 28.7 ± 1.81 | 14.6 ± 4.44 | 12.7 ± 1.94 | 18.1 ± 3.53 | 20 | 17.7 ± 0.7 | 67.1 ± 1.9 | 76 ± 2.1 | 86.7 ± 1.22 | 77.9 ± 0.78 | 74.3 ± 0.8 | 94.97 ± 0.12 | 67.1 ± 1.37 | 94.93 ± 0.94 |  |  |  |
| > 30 | > 30 | > 30 | 13.3 ± 1.5 | C=CC1=C(C)C(=O)C=C2C3=C(CC[C@@]21OC)[C@@](C)(OC)C(=O)C=C3 [Compound 1a, 2,6-dioxo-1,8a-dimethoxy-1,7-dimethyl-8-vinyl-9,10-dihydrophenanthrenes] | < 10 | 14.1 ± 1.87 | < 10 | < 10 | > 30 | > 30 | 33.1 ± 1.15 | 32.5 ± 1.96 | 47.8 ± 3.28 | < 10 | 19.5 ± 2.08 | 87.97 ± 0.34 | 25.1 ± 1.6 | 87.7 ± 1.1 | < 10 | 32.1 ± 1.88 |  |
| > 30 | > 30 | > 30 | 9 ± 1 | C=CC1=C(C)C(=O)C=C2C3=C(CC[C@]21OC)[C@@](C)(OC)C(=O)C=C3 [Compound 1b, 2,6-dioxo-1,8a-dimethoxy-1,7-dimethyl-8-vinyl-9,10-dihydrophenanthrenes] | 14.2 ± 3.54 | 13.6 ± 1.33 | 16.3 ± 2.68 | < 10 | > 30 |  | 31.9 ± 1.28 | 43.8 ± 1.31 | 42.6 ± 2.07 | 27.7 ± 1.96 | 46 ± 2.01 | 95.12 ± 0.44 | 52.2 ± 1.02 | 96.61 ± 0.23 | < 10 | 41.9 ± 1.35 | IC50 [5]: 10.2 ± 1.7 µM |
| > 30 | 12.5 ± 0.9 | > 30 |  | C=CC1=C(C)C(=O)C=C2C3=C(CC[C@@]21OC)[C@](C)(OC)C(=O)C=C3 [Compound 1c, 2,6-dioxo-1,8a-dimethoxy-1,7-dimethyl-8-vinyl-9,10-dihydrophenanthrenes] | 10.2 ± 4.97 | 36.4 ± 2.76 | 28.3 ± 1.66 | < 10 | 28.1 ± 0.1 |  | 28.1 ± 1.14 | 84.5 ± 1.63 | 36.1 ± 0.87 | 57.5 ± 2.33 | 85.7 ± 1.16 | 96.31 ± 0.17 | 68.5 ± 0.75 | 98.88 ± 0.1 | < 10 | 69.4 ± 1.87 |  |
| > 30 | > 30 | > 30 | 11 ± 0.4 | C=CC1=C(C)C(=O)C=C2C3=C(CC[C@]21OC)[C@](C)(OC)C(=O)C=C3 [Compound 1d, 2,6-dioxo-1,8a-dimethoxy-1,7-dimethyl-8-vinyl-9,10-dihydrophenanthrenes] | < 10 | < 10 | 11.4 ± 2.71 | < 10 | > 30 | > 30 | 34.6 ± 1.38 | 41.8 ± 1.15 | 25.1 ± 3.84 | 11.6 ± 2.33 | 22.1 ± 1.44 | 89.4 ± 1 | 45.1 ± 2.08 | 92.39 ± 0.36 | < 10 | 30.7 ± 2.04 | IC50 [5]: 13 ± 0.2 µM |
|  | > 30 |  |  | C=CC1=C(C)C(=O)C=C2c3ccc(O)c(C)c3CC[C@@]21OC [Compound 4a] | 61.5 ± 1.87 | 37 ± 1.07 | 88.1 ± 0.89 | < 10 | > 30 |  | 58.5 ± 0.86 | 48.1 ± 1.47 | 62.3 ± 2 | 26.3 ± 1.36 | 58.41 ± 0.31 | 66.6 ± 0.74 | 44.5 ± 2.01 | 73.18 ± 0.4 | 19.2 ± 1.41 | 51.7 ± 1.68 |  |
| 20.6 ± 0.3 |  |  |  | C=CC1=C(C)C(=O)C=C2c3ccc(O)c(C)c3CC[C@@]21OCC [Compound 7a, 8a-ethoxy-1,7-dimethyl-6-oxo-8-vinyl-9,10-dihydrophenanthrene-2-ols] | 41.7 ± 1.37 | 57.4 ± 2.46 | 71.1 ± 1.57 | 17 ± 1.88 | > 30 |  | 54.5 ± 1.33 | 57 ± 1.24 | 86.1 ± 1.29 | < 10 | 73.18 ± 0.61 | 86.42 ± 0.5 | 82.1 ± 0.54 | 84.75 ± 0.4 | 23.3 ± 1.48 | 33.8 ± 1.74 | activity against nontumoral NIH/3T3 cells (in words) ([7]; MTT): inactive |
